Measurements: article PMC8708491 (Vaccines, 2021)
Each block holds one substance with its values, some of them ahead of it. Where no end group is shown, it is not given here.

Experiments:
endo-proteinase Glu-C V8 = endo-proteinase Glu-C V8 (Staphylococcus aureus, UniProt P0C1U8); conditions: 100 mM Tris-HCl pH 7.8 (carbonate buffer in Figure 6); 0.5 mg/mL; read-out HPLC (fragment MOG37–55 at 13.55 min), MS and UPLC-MS/MS
Method: This cleavage experiment aimed to identify fragment MOG37–55 by HPLC analysis. […] In particular, endo-proteinase Glu-C V8, a proteolytic serine, sequencing grade from Staphylococcus aureus V8, (Roche, lot no. 32228800) was used. This enzyme acts at the carboxylic acid of the Glu amino acid. […] The same experiment of enzymatic hydrolysis with a glutamate enzyme was also carried out with oxidized mannan–(KG)5-MOG35–55 conjugate.

[1] = Polarity by reversed-phase HPLC retention; assay type: physicochemical; conditions: chromatographic, RP-18 (C18) column, gradient 5–100% AcN in 30 min, 0.08% TFA, 214 nm
Method: Figure 8 HPLC analysis of peptide (KG)5-MOG35–55 (214 nm) and oxidized mannan–(KG)5-MOG35–55. HPLC analysis of (A) (KG)5-MOG35–55 and (B) oxidized mannan–(KG)5-MOG35–55 solution after 3 years (214 nm) showing the stability of the conjugate. […] The oxidized mannan–(KG)5-MOG35–55 conjugate was very polar, and it appeared at an earlier retention time compared to the less polar (KG)5-MOG35–55 peptide. The HPLC method used: gradient 5–100% AcN in 30 min.

[2] = system: endo-proteinase Glu-C V8, sequencing grade from Staphylococcus aureus V8; test: endo-proteinase Glu-C V8 in 100 mM Tris-HCL, pH 7.8
[3] = system: patients with secondary progressive MS; conditions: cited from earlier work
Method: The study was performed for the first time using a peptide epitope on patients with secondary progressive MS (MAESTRO-01 study).

adenocarcinoma patients = conditions: cited from earlier work
Text: We have shown that mannan, a poly-mannose carbohydrate isolated from the cell wall of yeast when conjugated to cancer proteins, induces Th1 or Th2 immune responses depending on the mode of conjugation and has therapeutic benefits against cancer when conjugated to peptides, proteins, and DNA. […] In addition, mannan has the added advantage, as it stimulates dendritic cells via Toll-like receptor 4. In MS, mannan conjugated to linear o ...

[4] = system: experimental autoimmune encephalomyelitis (EAE); conditions: cited from earlier work
Text: Several biological studies, including in vitro and in vivo assays, have been carried out to evaluate the effects of mannan–myelin peptide conjugates. […] In another study, mannan–MOG35–55 reversed experimental autoimmune encephalomyelitis, inducing a pe ...

CD4 T cells = conditions: cited from earlier work
Text: The induction of immunological tolerance through the action of dendritic cells is a newly introduced strategy for the treatment of MS. Peripheral blood mononuclear cells (PBMCs) were isolated from patients with relapsing-remitting (RR-MS) and age- and sex-matched healthy individuals (controls).

[5] = old lab batches kept at 5 ± 3 °C since 2014; HPLC (data not shown)
Method: We used a Waters 2695 HPLC (Alliance) system using a photodiode array detector. A Lichrosorb RP-18 reversed-phase analytical column (C18 […], 4.6 × 50 mm PIN 186003034). […] The reaction of oxidized mannan with a (KG)5-MOG35–55 peptide was monitored by HPLC. […] The samples were kept for 3 years and assessed by HPLC for stability.
The stability of the oxidized mannan–(KG)5-MOG35–55 conjugate was analyzed after 3 years of storage.

[6] = another study, wording is the title of ref 20
[7] = compared to EAE controls, 19 (wording matches ref 30)

Substance: (KG)5-MOG35–55: peptide MOG35–55 synthesized with (KG)5 at its N-terminus (MEVGWYRSPFSRVVHLYRNGK; N-terminal (KG)5 linker; UniProt Q61885 63-83, looked up, fragment)
Cleavage by endo-proteinase Glu-C (endo-proteinase Glu-C V8): cleavage of the peptide
Polarity from HPLC retention time [1]: less polar

cleaved bond [2]: Glu36-Val37
Substance: KGKGKGKGKGMEVGWYRPPFSRVVHLYRNGK

Substance: MBP82–98: myelin basic protein epitope peptide clinically tested in phases I, II and III (PADPGSRPHLIRLFSRD; dirucotide; UniProt P02686 82-98, looked up, fragment)
Safety in clinical trials ([3]; phases I, II and III): safe
Efficacy in clinical trial ([3]; secondary progressive MS, MAESTRO-01 study, trial suspended): lack of efficacy

Substance: mannan conjugated to MUC1 protein: mannan conjugated to MUC1 cancer protein, tested in humans
Clinical responses (adenocarcinoma patients; adenocarcinoma patients): clinical responses
Cancer recurrence (adenocarcinoma patients; in humans): protection against cancer recurrence
Immune responses (adenocarcinoma patients; in humans): induces immune responses

Substance: oxidized mannan–(KG)5-MOG35–55: MOG35–55 peptide conjugated to oxidized mannan via the (KG)5 linker at its N-terminus (KGKGKGKGKGMEVGWYRSPFSRVVHLYRNGK; also: conjugated to oxidized mannan via Schiff base on linker lysine side chains; UniProt Q61885 63-83, looked up, fragment)
Cleavage by endo-proteinase Glu-C (endo-proteinase Glu-C V8): cleavage of peptide sequence between amino acids Glu(36) and Val(37)
Development of neurological symptoms and inflammatory demyelinating spinal cord lesions ([4]; EAE models, peptide conjugated to oxidized mannan via (KG)5, earlier study, no reference given): inhibit
Axons in spinal cord lesions [4, 6]: preserved
CNS inflammation [4, 6]: reduced
Effect on experimental autoimmune encephalomyelitis [4, 6]: reversed
Peripheral myeloid response [4, 6]: inducing a peripheral type 2 myeloid response
Antigen-specific T-cell proliferation [4, 7]: reduced
Th1, Th17, and regulatory T-cell differentiation or T-cell apoptosis [4, 7]: no alterations
Protection in EAE ([4]; therapeutic and prophylactic models, 19 (no reference at the sentence; wording matches ref 30)): showed protection
Polarity from HPLC retention time [1]: very polar
Activation levels of CD4 T cells (CD4 T cells; co-cultures with tolerogenic DCs presenting the conjugate, PBMCs from RR-MS patients and healthy controls): Inhibition of activation
T-cell tolerance (CD4 T cells; tolerogenic DCs loaded with the conjugate, generated in vitro): induce T-cell tolerance
Stability of the conjugate: fragmentation or detachment [5]: did not show any signs of fragmentation or detachment
